This data set in a line: recombinant barcode read abundance after kanamycin selection (control-corrected) (log10(CPM+1)); higher = more efficient recombination; sequences stand for … in AGTGCAGAGAAAATCGGCCAGTTTTCTCTGCCTGCAGTCCGCATGCCGT…AGATTTATGCAGCGGACTGCCTTTCTCCCAAAGTGATAAACCGGACAGTATCATGGACCGGTTTTCCCGGTAATCCGTATTTGCAAGGTTGGTTTCACT; site = the 11-nt target. An outline of the steps: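 Recombination efficiency in this pooled E. coli screen uses counts per million of barcodes at recombinant junctions, averaged and corrected against the control. The reported form is log10(CPM+1). Two replicates were plated on chloramphenicol/ampicillin LB agar as control and two on chloramphenicol/ampicillin/kanamycin with 0.1 mM IPTG.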

Experimental findings from the supplement of paper PMC11208160 are described below.
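Further: IS621 recombinase and bridge RNA in Escherichia coli cells.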

Turning to “CTATCCTCTTGGGTTCTAACCTGTTGCAT (site CTAACCTCTAT)”, the “recombinant barcode read abundance (log10)” value is 0.233. In the case of “CTATCCTCTTGGGTTCTAACCTGTTGCAT (site CTACCCTCTAT)” it was 1.01. For “CTATCCTCTTGGGTTCTAACCTGTTGCAT (site CTAGCCTCTAT)”, the “recombinant barcode read abundance (log10)” value was found to be 0.537. In the case of “CTATCCTCTTGGGTTCTAACCTGTTGCAT (site CTATCCTCTAT)” it was 1.06; in that of “CTATGACCTTGGGTTCTAACCTGTTGCTG (site CTATGACCTCA)”, 1.91. The value for “CTATGACCTTGGGTTCTAACCTGTTGCTG (site TCGGAGTCTGC)” was 0.0682; that for “CTATGCCCTTGGGTTCTAACCTGTTGCGA (site CTATGCCCTTA)” was 0.129. In the case of “CTATGCCCTTGGGTTCTAACCTGTTGCGA (site CTATGCCCTTC)” it was 2.02.

Consider “CTATGGACTTGGGTTCTAACCTGTTGCAG (site CTATGGACTAT)”, for which the “recombinant barcode read abundance (log10)” value stood at 0.391. With “CTATGGACTTGGGTTCTAACCTGTTGCAG (site CTATGGACTCT)”, the “recombinant barcode read abundance (log10)” value turned out to be 2.39. In the case of “CTATGGACTTGGGTTCTAACCTGTTGCAG (site CTATGGACTGT)” it was 0.348. In the case of “CTATGGACTTGGGTTCTAACCTGTTGCAG (site CTATGGACTTT)” it was 0.0535; in that of “CTATGTGCTTGGGTTCTAACCTGTTGCCT (site CTATGTGCTAA)”, 0.158.

For “CTATGTGCTTGGGTTCTAACCTGTTGCCT (site CTATGTGCTAC)”, the “recombinant barcode read abundance (log10)” value amounted to 0.298. The value for “CTATGTGCTTGGGTTCTAACCTGTTGCCT (site CTATGTGCTAG)” was 1.62; that for “CTATGTGCTTGGGTTCTAACCTGTTGCCT (site CTATGTGCTAT)” was 0.305.

Consider “CTATGTGCTTGGGTTCTAACCTGTTGCGA (site CTATGTGCTTC)”, for which the “recombinant barcode read abundance (log10)” value was determined as 1.87. In the case of “CTATGTGCTTGGGTTCTAACCTGTTGCGA (site GTATGTGCTTT)” it was 0.139; in that of “CTATGTGCTTGGGTTCTAACCTGTTGCGT (site CTATGTGCTAA)”, 0.0372. In the case of “CTATGTGCTTGGGTTCTAACCTGTTGCGT (site CTATGTGCTAC)” it was 1.54; in that of “CTATGTGCTTGGGTTCTAACCTGTTGCGT (site CTATGTGCTAG)”, 0.0548. For “CTATGTGCTTGGGTTCTAACCTGTTGCGT (site CTATGTGCTAT)”, the “recombinant barcode read abundance (log10)” value amounted to 0.298. With “CTATTCCCTTGGGTTCTAACCTGTTGCCT (site CTATTCACTAG)”, the “recombinant barcode read abundance (log10)” value came out at 0.1. For the sequence “CTATTCCCTTGGGTTCTAACCTGTTGCCT (site CTATTCCCTAG)”, the “recombinant barcode read abundance (log10)” value is 1.52. In the case of “CTATTCCCTTGGGTTCTAACCTGTTGCCT (site CTATTCGCTAG)” it was 0.286; in that of “CTATTCCCTTGGGTTCTAACCTGTTGCCT (site CTATTCTCTAG)”, 0.483; in that of “CTATTGTCTTGGGTTCTAACCTGTTGCGG (site CTATTGTCTAC)”, 0.714. With “CTATTGTCTTGGGTTCTAACCTGTTGCGG (site CTATTGTCTCC)”, the “recombinant barcode read abundance (log10)” value came to 1.35.

Consider “CTATTGTCTTGGGTTCTAACCTGTTGCGG (site CTATTGTCTGC)”, for which the “recombinant barcode read abundance (log10)” value turned out to be 0.249. In the case of “CTATTGTCTTGGGTTCTAACCTGTTGCGG (site CTATTGTCTTC)” it was 0.17; in that of “CTCAATACTTGGGTTCTAACCTGTTGCGA (site CTCAATACTTC)”, 1.15; in that of “CTCAATACTTGGGTTCTAACCTGTTGCGA (site CTCAATTCTTT)”, 0.0435.

On to “CTCAGACCTTGGGTTCTAACCTGTTGCTG (site CTCAGACCTCA)”, for which the “recombinant barcode read abundance (log10)” value was 0.037. The value for “CTCAGACCTTGGGTTCTAACCTGTTGCTG (site TCACACACTAG)” was 0.463.

“CTCATATCTTGGGTTCTAACCTGTTGCCA (site CTAATATCTTG)”: the “recombinant barcode read abundance (log10)” value was 0.0804. The value for “CTCATATCTTGGGTTCTAACCTGTTGCCA (site CTCATATCTTG)” was 0.162.

In the case of “CTCCAGACTTGGGTTCTAACCTGTTGCAG (site CTCCAGACTCT)”, the “recombinant barcode read abundance (log10)” value worked out at 1.87. In the case of “CTCCAGACTTGGGTTCTAACCTGTTGCAG (site CTGCAGACTCG)” it was 0.0775; in that of “CTCCAGGCTTGGGTTCTAACCTGTTGCGG (site CTCAAGGCTAC)”, 0.427. In the case of “CTCCAGGCTTGGGTTCTAACCTGTTGCGG (site CTCCAGGCTCC)” it was 1.55; in that of “CTCCGAACTTGGGTTCTAACCTGTTGCTT (site CTCCGAACTAA)”, 0.144; in that of “CTCCGAACTTGGGTTCTAACCTGTTGCTT (site CTCCGTACTAT)”, 0.0428.

On to “CTCCGACCTTGGGTTCTAACCTGTTGCTT (site CTCCGACCTAA)”, for which the “recombinant barcode read abundance (log10)” value amounted to 1.67.

In the case of “CTCCGACCTTGGGTTCTAACCTGTTGCTT (site CTCCGCCCTAA)”, the “recombinant barcode read abundance (log10)” value amounted to 0.0228. In the case of “CTCCGACCTTGGGTTCTAACCTGTTGCTT (site CTCCGGCCTAA)” it was 0.327; in that of “CTCCGACCTTGGGTTCTAACCTGTTGCTT (site CTCCGTCCTAA)”, 0.103. In the case of “CTCCGAGCTTGGGTTCTAACCTGTTGCTA (site CTCCGAGCTTA)”, the “recombinant barcode read abundance (log10)” value was found to be 0.0161. Turning to “CTCCGAGCTTGGGTTCTAACCTGTTGCTA (site CTCCTAGCTAA)”, the “recombinant barcode read abundance (log10)” value was 0.00807.

Consider “CTCGACACTTGGGTTCTAACCTGTTGCTG (site CTCGACACTCA)”, for which the “recombinant barcode read abundance (log10)” value was found to be 1.6. For the sequence “CTCGACACTTGGGTTCTAACCTGTTGCTG (site CTCTACACTCA)”, the “recombinant barcode read abundance (log10)” value stood at 0.191. In the case of “CTCGCTACTTGGGTTCTAACCTGTTGCTT (site CTCGATACTAA)” it was 0.0927; in that of “CTCGCTACTTGGGTTCTAACCTGTTGCTT (site CTCGCTACTAA)”, 0.264. The value for “CTCGCTCCTTGGGTTCTAACCTGTTGCCA (site CTCGCTCCTTG)” was 0.275; that for “CTCGCTCCTTGGGTTCTAACCTGTTGCCA (site GAAAAGTCTCA)” was 0.113; that for “CTCGGAACTTGGGTTCTAACCTGTTGCAT (site CTCGGAACTAT)” was 1.86. The value for “CTCGGAACTTGGGTTCTAACCTGTTGCAT (site CTGGGAACTCT)” was 0.00945; that for “CTCGGGCCTTGGGTTCTAACCTGTTGCCT (site ATCGGGCCTAG)” was 0.0932. “CTCGGGCCTTGGGTTCTAACCTGTTGCCT (site CTCGGGCCTAG)”: the “recombinant barcode read abundance (log10)” value turned out to be 0.144. For “CTCGGGCCTTGGGTTCTAACCTGTTGCCT (site GTCGGGCCTAG)”, the “recombinant barcode read abundance (log10)” value amounted to 0.0296. “CTCGGGCCTTGGGTTCTAACCTGTTGCCT (site TTCGGGCCTAG)”: the “recombinant barcode read abundance (log10)” value is 0.0756. In the case of “CTCGTTACTTGGGTTCTAACCTGTTGCCT (site CTCGTAACTAG)” it was 0.0393; in that of “CTCGTTACTTGGGTTCTAACCTGTTGCCT (site CTCGTCACTAG)”, 0.112. As to “CTCGTTACTTGGGTTCTAACCTGTTGCCT (site CTCGTGACTAG)”, the “recombinant barcode read abundance (log10)” value turned out to be 0.0469. The value for “CTCGTTACTTGGGTTCTAACCTGTTGCCT (site CTCGTTACTAG)” was 0.682; that for “CTCGTTGCTTGGGTTCTAACCTGTTGCCT (site ATCGTTGCTAG)” was 0.0725. The value for “CTCGTTGCTTGGGTTCTAACCTGTTGCCT (site CTCGTTGCTAG)” was 0.519; that for “CTCGTTGCTTGGGTTCTAACCTGTTGCCT (site GTCGTTGCTAG)” was 0.0989.

As to “CTCGTTGCTTGGGTTCTAACCTGTTGCCT (site TTCGTTGCTAG)”, the “recombinant barcode read abundance (log10)” value was found to be 0.0838. In the case of “CTCTAGTCTTGGGTTCTAACCTGTTGCAT (site CTCTAGTCTAA)” it was 0.545; in that of “CTCTAGTCTTGGGTTCTAACCTGTTGCAT (site CTCTAGTCTAC)”, 0.263. As for “CTCTAGTCTTGGGTTCTAACCTGTTGCAT (site CTCTAGTCTAG)”, the “recombinant barcode read abundance (log10)” value was found to be 0.109. The value for “CTCTAGTCTTGGGTTCTAACCTGTTGCAT (site CTCTAGTCTAT)” was 1.8; that for “CTCTAGTCTTGGGTTCTAACCTGTTGCGT (site CTCTAGTCTAA)” was 0.268. Consider “CTCTAGTCTTGGGTTCTAACCTGTTGCGT (site CTCTAGTCTAC)”, for which the “recombinant barcode read abundance (log10)” value was found to be 2.54. In the case of “CTCTAGTCTTGGGTTCTAACCTGTTGCGT (site CTCTAGTCTAG)”, the “recombinant barcode read abundance (log10)” value came out at 0.125.

On to “CTCTAGTCTTGGGTTCTAACCTGTTGCGT (site CTCTAGTCTAT)”, for which the “recombinant barcode read abundance (log10)” value worked out at 1.79.

In the case of “CTCTCAGCTTGGGTTCTAACCTGTTGCGA (site CTCTAAACTTC)”, the “recombinant barcode read abundance (log10)” value stood at 0.15.
